The values below come from patent US20240252488A1 (KOREA RESEARCH INSTITUTE OF CHEMICAL TECHNOLOGY, priority 2020, published 2024).

pKd: −log10 of the molar value. Counter-ions that a name gives are not always drawn.

The first test has as its system FADD−/− Jurkat cells. Nature of the test: Necroptosis inhibition assay, TNF-α-induced necroptosis (CellTiter-Glo 2.0). It counts as cell-based, human. Conditions: compound 1 μM; TNF-α 15 ng/mL. On the procedure:
Necroptosis Inhibition Assay
Necroptosis inhibition was evaluated by the following method.
80 μL of FADD gene-defective human T lymphocyte cells (FADD−/− Jurkat cells) were equally distributed into each well at 5.0×10^5 cells/mL in a white 96-well plate with a transparent bottom. 20 μL of the medium containing test compound was treated in each well so that the final concentration of the compound was 0.1, 1, and 10 μM, and reacted at room temperature for 30 minutes. After the 30-minute reaction was over, TNF (tumor necrosis factor)-α was treated in the corresponding well so that the final concentration of TNF-α was 15 ng/mL in order to induce necroptosis. It was cultured in a 5% CO2, 37° C. incubator for 20 to 24 hours.
After incubation, the 96-well plate was left at room temperature for 30 minutes. After 30 minutes, Promega's CellTiter-Glo 2.0 reagent was diluted 1:3 with PBS and 100 μL of the diluted solution was added to each well to confirm cell viability by measuring the amount of ATP. After the treatment, the plate was shielded from light and incubated at room temperature for 2 minutes with orbital shaking, and then left at room temperature for 10 minutes without shaking. After measuring the luminescence at 0.5 seconds per well using a plate scanner, the cytotoxicity and necroptosis inhibition rate for the compound were calculated using the measured values.
Background: In ATP-based viability assays light output follows the ATP content of the culture.
For `Nc1nccnc1C(=O)N[C@@H](C(=O)Nc1ccc(F)cc1)c1ccccc1` [TDH-106, (R)-3-amino-N-(2-((4-fluorophenyl)amino)-2-oxo-1-phenylethyl)pyrazine-2-carboxamide], the “Necroptosis inhibition assay (Rescue %) 1 μM” value stood at 13.76%.

The test is the same for the next values; noted with them: compound 10 μM; TNF-α 15 ng/mL.
As to `Nc1nccnc1C(=O)N[C@@H](C(=O)Nc1ccc(F)cc1)c1ccccc1` [TDH-106, (R)-3-amino-N-(2-((4-fluorophenyl)amino)-2-oxo-1-phenylethyl)pyrazine-2-carboxamide], the “Necroptosis inhibition assay (Rescue %) 10 μM” value was found to be 34.33%.

For a further test, the target named is T1, MLKL (Homo sapiens, UniProt Q8NB16).
T1 sequence (Q8NB16 1-471): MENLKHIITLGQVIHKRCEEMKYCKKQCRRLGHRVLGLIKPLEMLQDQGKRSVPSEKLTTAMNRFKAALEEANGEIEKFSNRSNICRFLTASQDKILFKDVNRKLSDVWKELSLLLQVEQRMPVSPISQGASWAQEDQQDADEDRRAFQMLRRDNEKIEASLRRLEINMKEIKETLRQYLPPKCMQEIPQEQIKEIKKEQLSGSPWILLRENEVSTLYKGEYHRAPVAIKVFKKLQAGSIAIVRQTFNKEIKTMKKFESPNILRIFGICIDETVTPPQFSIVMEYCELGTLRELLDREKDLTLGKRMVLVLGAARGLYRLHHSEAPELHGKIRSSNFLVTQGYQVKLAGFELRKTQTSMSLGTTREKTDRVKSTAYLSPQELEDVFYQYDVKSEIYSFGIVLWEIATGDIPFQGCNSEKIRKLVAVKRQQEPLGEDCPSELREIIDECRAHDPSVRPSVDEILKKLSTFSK
Nature of the test: Measurement of binding affinity with MLKL receptor (competitive binding assay, Kd). Set-up: made in house; host or cells: HEK 293 cell line (T7 phage in E. coli BL21-derived host is also described).
Details: not given
The method, then:
Measurement of Binding Affinity with MLKL Receptor (Competitive Binding Assay)
The binding affinity was evaluated by measuring the Kd value in the following method.
To prepare kinase-tagged T7 phage strains in an E. coli host derived from the BL21 strain, E. coli were grown to log-phase and infected with T7 phage and incubated with shaking at 32° C. until lysis. The lysates were centrifuged and filtered to remove cell debris. For kinase production, it was expressed in human embryonic kidney cell line (HEK 293 cell line), and subsequently tagged with DNA for qPCR detection.
The liganded beads were blocked with excess biotin and washed with blocking buffer (SeaBlock (Pierce), 1% BSA, 0.05% Tween 20, 1 mM DTT) to remove unbound ligand and to reduce non-specific binding. […] Test compounds were prepared as 111× stocks in 100% DMSO.
The compounds were then diluted directly into the assays such that the final concentration of DMSO was 0.9%. All reactions performed in polypropylene 384-well plate. Each was a final volume of 0.02 ml. […] The kinase concentration in the eluates was measured by qPCR.
For `Nc1ncc(-c2cnn(C3CCNCC3)c2)nc1C(=O)O[C@@H](C(=O)Nc1ccccc1)c1ccccc1` [TDH-463, (R)-2-oxo-1-phenyl-2-(phenylamino)ethyl 3-amino-6-(1-(piperidin-4-yl)-1H-pyrazol-4-yl)pyrazine-2-carboxylate hydrochloride], the negative logarithm of the Kd (pKd) (as a rule, −log10 of the Kd, conventionally taken in molar units) was 9.46.

For the compound `Nc1ncc(-c2cnn(C3CCN(CCCCCCNc4cccc5c4C(=O)N(C4CCC(=O)NC4=O)C5=O)CC3)c2)nc1C(=O)O[C@@H](C(=O)Nc1ccc(F)cc1)c1ccccc1` (stereo partly drawn) [TDH-119, (R)-2-((4-fluorophenyl)amino)-2-oxo-1-phenylethyl 3-amino-6-(1-(1-(6-((2-(2,6-dioxopiperidin-3-yl)-1,3-dioxoisoindolin-4-yl)amino)hexyl)piperidin-4-yl)-1H-pyrazol-4-yl)pyrazine-2-carboxylate], the pKd was 8.10. On the same count and under the same terms, in the case of `Nc1ncc(-c2cnn(C3CCNCC3)c2)nc1C(=O)O[C@@H](C(=O)Nc1cccnc1)c1ccccc1` [TDH-468, (R)-2-oxo-1-phenyl-2-(pyridin-3-ylamino)ethyl 3-amino-6-(1-(piperidin-4-yl)-1H-pyrazol-4-yl)pyrazine-2-carboxylate hydrochloride] it was 8.77; in that of `Nc1ncc(C2=CCN(C(=O)COCCOCCNc3cccc4c3C(=O)N(C3CCC(=O)NC3=O)C4=O)CC2)cc1C(=O)O[C@@H](C(=O)Nc1ccc(F)cc1)c1ccccc1` (stereo partly drawn) [TDH-082, (R)-2-((4-fluorophenyl)amino)-2-oxo-1-phenylethyl 6-amino-1′-(2-(2-(2-((2-(2,6-dioxopiperidin-3-yl)-1,3-dioxoisoindolin-4-yl)amino)ethoxy)ethoxy)acetyl)-1′,2′,3′,6′-tetrahydro-[3,4′-bipyridine]-5-carboxylate], 7.15; in that of `CC(C)(C)OC(=O)N1CC=C(c2cnc(N)c(C(=O)O[C@@H](C(=O)Nc3ccc(F)cc3)c3ccccc3)c2)CC1` [TDH-066, (R)-1′-(tert-butyl) 5-(2-((4-fluorophenyl)amino)-2-oxo-1-phenylethyl) 6-amino-3′,6′-dihydro-[3,4′-bipyridine]-1′,5(2′H)-dicarboxylate], 6.19.

Consider `Nc1ncc(C2=CCNCC2)cc1C(=O)O[C@@H](C(=O)Nc1ccc(F)cc1)c1ccccc1` [TDH-070, (R)-2-((4-fluorophenyl)amino)-2-oxo-1-phenylethyl 6-amino-1′,2′,3′,6′-tetrahydro-[3,4′-bipyridine]-5-carboxylate hydrochloride], for which the pKd is 6.96. `CCN1CCN(c2ccc(-c3cnc(N)c(C(=O)O[C@@H](C(=O)Nc4ccc(F)cc4)c4ccccc4)n3)cn2)CC1` [TDH-183, (R)-2-((4-fluorophenyl)amino)-2-oxo-1-phenylethyl 3-amino-6-(6-(4-ethylpiperazin-1-yl)pyridin-3-yl)pyrazine-2-carboxylate] showed a pKd of 8.70. Compound `Cc1ccc(NC(=O)[C@H](OC(=O)c2nc(-c3cnn(C4CCNCC4)c3)cnc2N)c2ccccc2)cc1` [TDH-319, (R)-2-oxo-1-phenyl-2-(p-tolylamino)ethyl 3-amino-6-(1-(piperidin-4-yl)-1H-pyrazol-4-yl)pyrazine-2-carboxylate hydrochloride] had a pKd of 9.09. This pKd is 0.39 log units higher than that of the compound before. Compound `CC(=O)N1CCC(n2cc(-c3cnc(N)c(C(=O)O[C@@H](C(=O)Nc4ccc(F)cc4)c4ccc(Cl)cc4)n3)cn2)CC1` [TDH-325, (R)-1-(4-chlorophenyl)-2-((4-fluorophenyl)amino)-2-oxoethyl 6-(1-(1-acetylpiperidin-4-yl)-1H-pyrazol-4-yl)-3-aminopyrazine-2-carboxylate] showed a negative-log Kd (pKd) of 8.96. The same measure, in the same setting: then `Nc1ncc(C2=CCNCC2)nc1C(=O)O[C@@H](C(=O)Nc1ccc(F)cc1)c1ccccc1` [TDH-068, (R)-2-((4-fluorophenyl)amino)-2-oxo-1-phenylethyl 3-amino-6-(1,2,3,6-tetrahydropyridin-4-yl)pyrazine-2-carboxylate hydrochloride], with 6.42; and `Nc1ncc(-c2cnn(C3CCNCC3)c2)nc1C(=O)OC(C(=O)Nc1ccc(F)cc1)c1ccc(F)cc1` (stereo not drawn) [TDH-489, 1-(4-fluorophenyl)-2-((4-fluorophenyl)amino)-2-oxoethyl 3-amino-6-(1-(piperidin-4-yl)-1H-pyrazol-4-yl)pyrazine-2-carboxylate hydrochloride], with 8.92; and `Nc1ncc(-c2cnn(C3CCNCC3)c2)nc1C(=O)O[C@@H](C(=O)Nc1ccc(C(F)(F)F)cc1)c1ccccc1` [TDH-459, (R)-2-oxo-1-phenyl-2-((4-(trifluoromethyl)phenyl)amino)ethyl 3-amino-6-(1-(piperidin-4-yl)-1H-pyrazol-4-yl)pyrazine-2-carboxylate hydrochloride], with 8.19. On the same count and under the same terms, then `Nc1ncc(-c2cnn(C3CCN(CCCCCCCCCCNc4cccc5c4C(=O)N(C4CCC(=O)NC4=O)C5=O)CC3)c2)nc1C(=O)O[C@@H](C(=O)Nc1ccc(F)cc1)c1ccccc1` (stereo partly drawn) [TDH-095, (R)-2-((4-fluorophenyl)amino)-2-oxo-1-phenylethyl 3-amino-6-(1-(1-(10-((2-(2,6-dioxopiperidin-3-yl)-1,3-dioxoisoindolin-4-yl)amino)decyl)piperidin-4-yl)-1H-pyrazol-4-yl)pyrazine-2-carboxylate], with 7.59.

In the case of `Nc1ncc(C2=CCN(C(=O)COCCOCCNC(=O)C3CN(c4ccc5c(c4)C(=O)N(C4CCC(=O)NC4=O)C5=O)C3)CC2)cc1C(=O)O[C@@H](C(=O)Nc1ccc(F)cc1)c1ccccc1` (stereo partly drawn) [TDH-087, (R)-2-((4-fluorophenyl)amino)-2-oxo-1-phenylethyl 6-amino-1′-(2-(2-(2-(1-(2-(2,6-dioxopiperidin-3-yl)-1,3-dioxoisoindolin-5-yl)azetidine-3-carboxamido)ethoxy)ethoxy)acetyl)-1′,2′,3′,6′-tetrahydro-[3,4′-bipyridine]-5-carboxylate], the pKd was 7.42. `Nc1ncc(Br)nc1C(=O)N[C@H](C(=O)Nc1ccc(F)cc1)c1ccccc1` [TDH-067, (S)-3-amino-6-bromo-N-(2-((4-fluorophenyl)amino)-2-oxo-1-phenylethyl)pyrazine-2-carboxamide] gave a pKd below 5.00. Consider `CN(C(=O)c1nc(-c2cnn(C3CCNCC3)c2)cnc1N)[C@@H](C(=O)Nc1ccc(F)cc1)c1ccccc1` [TDH-490, (R)-3-amino-N-(2-((4-fluorophenyl)amino)-2-oxo-1-phenylethyl)-N-methyl-6-(1-(piperidin-4-yl)-1H-pyrazol-4-yl)pyrazine-2-carboxamide hydrochloride], for which the negative-log Kd (pKd) is 6.40.

Compound `CC(C)(C)OC(=O)N1CC[C@H](n2cc(-c3cnc(N)c(C(=O)OC(C(=O)Nc4ccc(F)cc4)c4ccccc4)n3)cn2)C1` (stereo partly drawn) [TDH-227, 2-((4-fluorophenyl)amino)-2-oxo-1-phenylethyl 3-amino-6-(1-((S)-1-(tert-butoxycarbonyl)pyrrolidin-3-yl)-1H-pyrazol-4-yl)pyrazine-2-carboxylate] showed a pKd of 7.92. This pKd lies 1.52 log units higher than the previous one.

`Cc1ccc([C@@H](OC(=O)c2nc(-c3cnn(C4CCNCC4)c3)cnc2N)C(=O)Nc2ccc(F)cc2)cc1` [TDH-320, (R)-2-((4-fluorophenyl)amino)-2-oxo-1-(p-tolyl)ethyl 3-amino-6-(1-(piperidin-4-yl)-1H-pyrazol-4-yl)pyrazine-2-carboxylate hydrochloride] had a negative-log Kd (pKd) of 8.77.

In turn, `Nc1ncc(-c2cnn(C3CCNCC3)c2)nc1C(=O)O[C@@H](C(=O)Nc1ccc(F)cc1)c1cccc(Cl)c1` [hydrochloride] showed a pKd of 8.70. The pKd values of the last two compounds are within 0.2 log units of each other.
